In patent US6369273B1, “Chemical compounds and their use to elevate pyruvate dehydrogenase activity” (AstraZeneca AB, priority 1998, dated 2002):

Columns and labels:
PDH = conditions: cited from earlier work
[1] = after repeated administration (Evans and Stacpoole 1982); cited from earlier work

Row | SMILES | melting point [°C] | activity of PDH (PDH; after acute administration in animals (Vary et al., 1988)) | proportion of PDH in its active form (PDH; single administration, 150 mg/kg, intraperitoneally (Vary et al. 1988)) | plasma glucose [1]
1 | Cc1cc(C(=O)c2ccccc2)ccc1NC(=O)C(C)(O)C(F)(F)F (centres unmarked) | 123 to 124 | – | – | –
2 | C[C@@](O)(C(=O)Nc1ccc(S(=O)(=O)c2ccccc2)cc1F)C(F)(F)F | 121 to 122 | – | – | –
3 | O=C(O)C(Cl)Cl [DCA, dichloroacetic acid] | – | increases the activity of PDH | increased the proportion of PDH in its active form | significant decrease in plasma glucose
